Assay results reported in patent US20120021988A1, “METHODS FOR TREATING IMMUNE THROMBOCYTOPENIA” (priority 2007, published 2012).
Several values for one entry are separate records, joined by “and”; a condition that tells them apart may be missing. Identical values can stand only once.

Tested on: mice having induced ITP
Experiment: In vivo treatment of ITP induced by rabbit anti-platelet antibody, platelet counting by flow cytometry
Parameters: species or system CD-1 mice
Conditions: for Platelet counts, individual mice: intraperitoneal, 24 hours, listed as AP; for Platelet counts, mean: 3 mice, ITP alone mean 170.7, Nil 1016
Experimental: Mice: CD-1 mice approximately 6-8 weeks of age were obtained from Charles River (Montreal). The animals were housed 3-5 per cage in filter-topped cages. The temperature and relative humidity were maintained at […] and 35-70%, respectively, and a 12 hour light/dark cycle was used. The mice were fed rodent chow and water ad libitum.
Anti-platelet antibodies to induce ITP: A rabbit anti-platelet antibody (Inter-Cell Technologies, Inc., Jupiter, Fla.; Cat. No. A31440) was used to induce ITP. Each mouse received 10 μl antibody-containing serum, diluted with 190 μl PBS for injection, such that the final injection volume was 200 μl for all groups injected with anti-platelet antibody.
On the day of use, one vial of rabbit anti-platelet antibody was removed from the freezer, placed in a 22° C. water bath, and shaken. The tube was checked every 30 seconds, and when it was completely thawed it was placed in a microcentrifuge and centrifuged at 10,000×g (11,000 rpm) for 10 minutes at 4° C. The supernatant fluid was transferred to a new tube and the pellet was discarded. The supernatant was placed on ice until used or diluted, as appropriate. Unused portions of the sera were discarded.
Therapeutic treatment of ITP: IVIg was used as a standard control treatment for the ITP induced by the rabbit anti-platelet antibody. The IVIg was Gamimmune® N, 10%. Treatment with IVIg consisted of an intraperitoneal injection of 50 mg (500 μl) IVIg, a dose that was equivalent to a dose of 2,000 mg/kg body weight.
Platelet enumeration: All mice were bled via the saphenous vein. 50 μL of blood were collected into 450 μL PBS/1% EDTA. The blood was further diluted in PBS/1% EDTA. Platelets were enumerated by flow cytometry with a Guava microcapillary cytometer (Guava EasyCyteMini, Guava Technologies, Inc., Hayward, Calif.), using forward scatter (FSC) versus side scatter (SSC) to gate platelets.
Peptides used to inhibit ITP: Peptides having the amino acid sequences set forth in SEQ ID NO:2 ([…]), SEQ ID NO:20 ([…]), and a control peptide in which Trp7, Val13 and Trp14 of SEQ ID NO:20 were replaced by alanines ([…]; SEQ ID NO:57) were tested for their ability to inhibit ITP. Alanine substation of Val13 and Trp14 causes a decrease in binding affinity (measured by ΔΔG, where G=Gibbs Energy) of greater than 1,000 fold.
Peptides were stored at −20° C. until the day of use. On the day of use, peptides were removed from the freezer, placed in a 22° C. water bath, shaken, and checked every 30 seconds for thawing. When thawed, the peptides were placed on ice until use. For samples that received a 10× dose of peptide, the following were sequentially added to a 1.5 ml polypropylene Eppendorf tube: 623 μl PBS (pH 7.22), 35 μL rabbit anti-plaletet IgG, and 42 μl peptide, with mixing after each addition. For samples having a 100× dose of peptide, the following were added sequentially to a 1.5 ml polypropylene Eppendorf tube: 245 μl PBS (pH 7.22), 35 μL rabbit anti-plaletet IgG, and 420 μl peptide, with mixing after each addition. The peptides were incubated for at least 30 minutes at 22° C. prior to injection into mice. (A 15 minute incubation in the laboratory, transport of the mixtures to the Vivarium, and injection took roughly an additional 30 minutes.)
The final volume of each peptide mixture was 700 μL, which was sufficient for injection of 3 mice (200 μl/mouse, plus 100 μl to cover dead volume). For the 10× dose/mouse of peptide, 12 μg of peptide (12 μl of 1 mg/ml solution) was mixed with 100 μg of the rabbit anti-platelet IgG (10 μl of 10 mg/ml solution). The volume of 700 μl was about 3.5× the volume injected per mouse (200 μl). To obtain the dose of peptide and rabbit IgG for the 700 μl final volume, dose of peptide or Rabbit IgG per mouse was multiplied by 3.5 (e.g., 12 μl peptide/mouse×3.5=42 μl, 10 μl Rabbit IgG/mouse×3.5=35 μl). PBS (623 μl, pH 7.22) was added to make up the final volume 700 μl. […]

[1] = ITP + 10X molar amount of peptide
[2] = ITP + 100X molar amount of peptide

For “Ala-Pro-Pro-Asp-Cys-Ala-Trp-His-Leu-Gly-Glu-Leu-Val-Trp-Cys-Thr (APPDCAWHLGELVWCT) [SEQ ID NO:20]”, which “Platelet counts, individual mice” value [1] is on record?
The value was 2.03e+11 L⁻¹ and 2.61e+11 L⁻¹ and 1.97e+11 L⁻¹.

What about the “Platelet counts, mean” value [1] of the same substance?
Its value is 2.203e+11 L⁻¹.

What about the “Platelet counts, individual mice” value [2] of the same substance?
The value was 7.59e+11 L⁻¹ and 6.42e+11 L⁻¹ and 4.33e+11 L⁻¹.

What about the “Platelet counts, mean” value [2] of the same substance?
Its value is 6.113e+11 L⁻¹.

And the “Effect on induced ITP, 100× versus 10×” value (first experiment, 100× molar)?
The value was “greater effect than 10× Peptide AP”.

And the “Effect on induced ITP” value (first experiment, Table 4, 10× and 100× molar)?
The value was “ameliorated induced ITP”.

What about the “Amelioration of induced ITP/AITP compared with IVIg” value (second experiment, FIG. 1, 10× molar and 100× molar, 24 hours after treatment) of the same substance?
Its value is “ameliorated the induced ITP/AITP better than the currently accepted treatment for ITP (IVIg)”.
